The results in this text go back to ChEMBL document CHEMBL3044986, “Synthesis of 1-(4-aminosulfonylphenyl)-3,5-diarylpyrazoline derivatives as potent antiinflammatory and antimicrobial agents” (2012).

In assay [1] the test system is Saccharomyces cerevisiae. Kind of assay: Antifungal activity against Saccharomyces cerevisiae MTCC 170 at 4 mg/ml after 24 hr by agar well diffusion assay. The assay is classed as functional. The following applies: for zone of inhibition at 4000 µg/mL: MTCC 170, 24 h, read-out: DIZ. On the technique in general: In agar diffusion tests the substance spreads into inoculated agar from a disc or well.

Assay [2] has as its system Candida albicans. Kind of assay: Antifungal activity against Candida albicans MTCC 227 at 4 mg/ml after 24 hr by agar well diffusion assay. The following applies: for zone of inhibition at 4000 µg/mL: MTCC 227, 24 h, read-out: DIZ. It is filed as functional.
Assay [3] concerns Candida albicans. Kind of assay: Antifungal activity against Candida albicans MTCC 227 after 24 hr by modified agar well diffusion assay. The assay is classed as functional.
In assay [4] the test system is Saccharomyces cerevisiae. Kind of assay: Antifungal activity against Saccharomyces cerevisiae MTCC 170 after 24 hr by modified agar well diffusion assay. It is filed as functional.
Assay [5] relates to Escherichia coli. The experiment in a line: Antibacterial activity against Escherichia coli MTCC 1652 at 4 mg/ml after 24 hr by agar well diffusion assay. The assay is classed as functional, organism-based.
Assay [6] has as its system Staphylococcus aureus. The experiment in a line: Antibacterial activity against Staphylococcus aureus MTCC 96 at 4 mg/ml after 24 hr by agar well diffusion assay. It is filed as functional. The following applies: MTCC 96, 24 h, read-out: DIZ.
Assay [7] has as its system Staphylococcus aureus. Kind of assay: Antibacterial activity against Staphylococcus aureus MTCC 96 after 24 hr by modified agar well diffusion assay. The assay is classed as functional. The settings on record: MTCC 96, 24 h.
The test system of assay [8] is Rattus norvegicus. Kind of assay: Anti-inflammatory activity in Rattus norvegicus Wistar albino (rat) assessed as inhibition of carrageenan-induced paw edema at 50 mg/kg, po administered 30 min prior to carrageenan-challenge measured at 3 hr by plethysmometric analysis relative to control. It is filed as functional. For orientation: The carrageenan paw model is a standard test of acute inflammation.

In assay [9] the test system is Rattus norvegicus. Kind of assay: Anti-inflammatory activity in Rattus norvegicus Wistar albino (rat) assessed as inhibition of carrageenan-induced paw edema at 50 mg/kg, po administered 30 min prior to carrageenan-challenge measured at 2 hr by plethysmometric analysis relative to control. It is filed as functional.
For assay [10], the system named is Bacillus subtilis. Kind of assay: Antibacterial activity against Bacillus subtilis MTCC 121 at 4 mg/ml after 24 hr by agar well diffusion assay. It is filed as functional. The following applies: MTCC 121, 24 h, read-out: DIZ.
Assay [11] relates to Bacillus subtilis. Kind of assay: Antibacterial activity against Bacillus subtilis MTCC 121 after 24 hr by modified agar well diffusion assay. It is filed as functional. The settings on record: MTCC 121, 24 h.
Assay [12] deals with Rattus norvegicus. Kind of assay: Anti-inflammatory activity in Rattus norvegicus Wistar albino (rat) assessed as inhibition of carrageenan-induced paw edema at 50 mg/kg, po administered 30 min prior to carrageenan-challenge measured at 1 hr by plethysmometric analysis relative to control. It is filed as functional.
For assay [13], the system named is Rattus norvegicus. Kind of assay: Anti-inflammatory activity in Rattus norvegicus Wistar albino (rat) assessed as inhibition of carrageenan-induced paw edema at 50 mg/kg, po administered 30 min prior to carrageenan-challenge measured at 4 hr by plethysmometric analysis relative to control. It is filed as functional.
Assay [14] relates to Pseudomonas aeruginosa. Kind of assay: Antibacterial activity against Pseudomonas aeruginosa MTCC 741 at 4 mg/ml after 24 hr by agar well diffusion assay. The assay is classed as functional, organism-based.

≈ marks a conversion by molar mass, not a printed value. Calls of active or inactive are those of the source. The calls are words filed in the database; no cut-off is given here. Where only a bound is given, the exact number is not on record here.

The MIC is the least concentration at which growth counts as inhibited. In the case of `C[C@@H]1[C@H](O)[C@@H](C)/C=C/C=C/C=C/C=C/C=C/C=C/C=C/[C@H](O[C@@H]2O[C@H](C)[C@@H](O)[C@H](N)[C@@H]2O)C[C@@H]2O[C@](O)(C[C@@H](O)C[C@@H](O)[C@H](O)CC[C@@H](O)C[C@@H](O)CC(=O)O[C@H]1C)C[C@H](O)[C@H]2C(=O)O` [AMPHOTERICIN B], the results for the zone of inhibition at 4000 µg/mL in assay [1] and in [2] were 13.6 mm and 14.3 mm, respectively. Also, the MIC was found to be 100 µg/mL (≈ 108 µM) in [3] (MTCC 227, 24 h) and 100 µg/mL (≈ 108 µM) in [4] (MTCC 170, 24 h).

As usually defined, the inhibition in vivo is the share of the control response that was lost under treatment. As for `COc1ccc(C2CC(c3ccc(Cl)cc3)=NN2c2ccc(S(N)(=O)=O)cc2)c(OC)c1` (centres undefined), the zone of inhibition at 4000 µg/mL in assay [1] came out at 16 mm; in [2], 13.6 mm; in assay [6] it was 18.3 mm; in assay [10] it was 19.3 mm. In addition, the outcome in assay [5] and in [14] was inactive. Moreover, the MIC in assay [7] worked out at 64 µg/mL (≈ 136 µM); in assay [3] (MTCC 227, 24 h) it was 128 µg/mL (≈ 271 µM); in assay [11], 64 µg/mL (≈ 136 µM); in assay [4] (MTCC 170, 24 h), 64 µg/mL (≈ 136 µM). Also, the inhibition in vivo at 50 mg/kg in [8] came out at 57.2%; in assay [9] it was 48.8%; in [12] it was 43.5%; in assay [13] it was 32.9%.

For the compound `COc1cc(OC)cc(C2CC(c3ccc(Cl)cc3)=NN2c2ccc(S(N)(=O)=O)cc2)c1` (centres undefined), the zone of inhibition at 4000 µg/mL in [1] is 16.3 mm; in [2], 12.6 mm; in assay [6] it was 12 mm; in assay [10] it was 13.6 mm. The outcome in assay [5] and in [14] was inactive. Further, the MIC was greater than 256 µg/mL in assay [7]; greater than 256 µg/mL in [3] (MTCC 227, 24 h); greater than 256 µg/mL in [11]; 64 µg/mL (≈ 136 µM) in [4] (MTCC 170, 24 h). In addition, the inhibition in vivo at 50 mg/kg in assay [8] is 46.1%; in [9], 26.8%; in assay [12] it was 11.6%; in assay [13], 46.4%.

Take `COc1ccc(C2CC(c3ccc(Cl)cc3)=NN2c2ccc(S(N)(=O)=O)cc2)cc1OC` (centres undefined): the “diameter of the inhibition zone (DIZ)” value in [1] and in assay [2] was “inactive” each time. The result in assay [5] and in assay [14] was inactive. For the same compound, the zone of inhibition at 4000 µg/mL amounted to 13.6 mm in assay [6] and 17.3 mm in assay [10]. In addition, the MIC in [7] is 256 µg/mL (≈ 542 µM); in [11] it was 128 µg/mL (≈ 271 µM). For the same compound, the inhibition in vivo at 50 mg/kg is 68.3% in assay [8], 64.6% in [9], 57.9% in [12] and 49.5% in assay [13]. Further, the MIC entry in [3] and in assay [4] was “inactive” throughout.

As to `COc1cccc(C2CC(c3ccc(Cl)cc3)=NN2c2ccc(S(N)(=O)=O)cc2)c1OC` (centres undefined), the zone of inhibition at 4000 µg/mL in assay [1] was found to be 17.3 mm; in assay [2], 15.3 mm; in assay [6], 13.6 mm; in assay [10], 15 mm. In addition, the result in assay [5] and in [14] was inactive. The MIC in assay [7] worked out at 256 µg/mL (≈ 542 µM); in assay [3] (MTCC 227, 24 h), 64 µg/mL (≈ 136 µM); in assay [11], 128 µg/mL (≈ 271 µM); in assay [4] (MTCC 170, 24 h) it was 32 µg/mL (≈ 67.8 µM). Besides, the inhibition in vivo at 50 mg/kg in [8] came to 46.1%; in assay [9] it was 35.4%; in [12] it was 18.8%; in assay [13], 27.8%.

In the case of `O=C(O)c1cn(C2CC2)c2cc(N3CCNCC3)c(F)cc2c1=O` [CIPROFLOXACIN], the zone of inhibition at 4000 µg/mL in assay [6] was 26.6 mm; in assay [10] it was 24 mm. Moreover, the MIC in assay [7] and in assay [11] was 5 µg/mL (≈ 15.1 µM) in each case.

Take `COc1ccc(C2CC(c3ccc(F)cc3)=NN2c2ccc(S(N)(=O)=O)cc2)cc1OC` (centres undefined): the “diameter of the inhibition zone (DIZ)” value in assay [1] and in [2] was “inactive” in each case. For the same compound, the outcome in [5] and in assay [14] was inactive. Also, the zone of inhibition at 4000 µg/mL in assay [6] is 14 mm; in assay [10] it was 15.3 mm. Moreover, the MIC in [7] stood at 256 µg/mL (≈ 562 µM); in assay [11], 128 µg/mL (≈ 281 µM). Further, the inhibition in vivo at 50 mg/kg in assay [8] was 62.8%; in assay [9], 53.5%; in [12] it was 62.3%; in [13] it was 53.1%. Also, the MIC result in [3] and in [4] was “inactive” throughout.

For the compound `COc1ccc(OC)c(C2CC(c3ccc(Cl)cc3)=NN2c2ccc(S(N)(=O)=O)cc2)c1` (centres undefined), the zone of inhibition at 4000 µg/mL in [1] came to 17.6 mm; in [2], 14.3 mm; in assay [6], 15.3 mm; in assay [10], 18.6 mm. Also, the result in [5] and in assay [14] was inactive. The MIC in [7] came out at 128 µg/mL (≈ 271 µM); in assay [3] (MTCC 227, 24 h), 128 µg/mL (≈ 271 µM); in assay [11], 64 µg/mL (≈ 136 µM); in assay [4] (MTCC 170, 24 h), 32 µg/mL (≈ 67.8 µM). For the same compound, the inhibition in vivo at 50 mg/kg in [8] was found to be 58.9%; in assay [9], 48.8%; in assay [12] it was 14.5%; in [13], 45.4%.

Regarding `COc1ccc(OC)c(C2CC(c3ccc(F)cc3)=NN2c2ccc(S(N)(=O)=O)cc2)c1` (centres undefined), the “diameter of the inhibition zone (DIZ)” value in assay [1] and in [2] was “inactive” in each case. Moreover, the result in [5] and in [14] was inactive. In addition, the figures for the zone of inhibition at 4000 µg/mL in assay [6] and in assay [10] were 13.6 mm and 15 mm, respectively. The minimal inhibitory concentration (MIC) in assay [7] was determined as 256 µg/mL (≈ 562 µM); in assay [11], 128 µg/mL (≈ 281 µM). Further, the inhibition in vivo at 50 mg/kg in assay [8] came out at 48.3%; in assay [9] it was 30.7%; in assay [12], 50.7%; in assay [13], 41.7%. The MIC result in assay [3] and in assay [4] was “inactive” each time.

As for `COc1ccc(C2=NN(c3ccc(S(N)(=O)=O)cc3)C(c3cccc(OC)c3OC)C2)c(O)c1` (centres undefined), the zone of inhibition at 4000 µg/mL was 15.6 mm in assay [1], 14.3 mm in [2], 18.6 mm in assay [6] and 20.6 mm in assay [10]. Also, the result in assay [5] and in [14] was inactive. Further, the MIC in assay [7] was determined as 64 µg/mL (≈ 132 µM); in assay [3] (MTCC 227, 24 h) it was 128 µg/mL (≈ 265 µM); in assay [11], 32 µg/mL (≈ 66.2 µM); in assay [4] (MTCC 170, 24 h) it was 64 µg/mL (≈ 132 µM). Moreover, the inhibition in vivo at 50 mg/kg in [8] was determined as 45%; in assay [9] it was 25.2%; in assay [12] it was 47.8%; in assay [13], 43.8%.

In the case of `COc1ccc(C2=NN(c3ccc(S(N)(=O)=O)cc3)C(c3ccc(OC)cc3OC)C2)c(O)c1` (centres undefined), the “diameter of the inhibition zone (DIZ)” value in [1] and in [2] was “inactive” each time. The result in assay [5] and in assay [14] was inactive. Besides, the zone of inhibition at 4000 µg/mL was found to be 15.6 mm in assay [6] and 18.6 mm in assay [10]. Besides, the results for the MIC in assay [7] and in [11] were 128 µg/mL (≈ 265 µM) and 64 µg/mL (≈ 132 µM), respectively. Besides, the inhibition in vivo at 50 mg/kg was 40.6% in assay [8], 16.5% in [9], 33.3% in assay [12] and 37.1% in assay [13]. Also, the MIC entry in assay [3] and in assay [4] was “inactive” throughout.
